Source: ChEMBL document CHEMBL1201862, “PubChem BioAssay data set” (2004)
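Protocol summary: plate cells (96-well), add compound at 5 concentrations, incubate 48 h, interpolate endpoints linearly. GI50: concentration for 50% inhibition of growth.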 The source made the active and inactive calls. No stated cut-off is given here; in the data, active = GI50 up to about 1.1 µM and inactive = higher.

How the values were obtained:
Assay in all cases: NCI tumour cell line growth inhibition, 48 h
A549 = test system: A549
HOP-62 = test system: HOP-62
HL-60 = test system: HL-60
MDA-MB-435 = test system: MDA-MB-435
HT-29 = test system: HT-29
TK-10 = test system: TK-10
SNB-75 = test system: SNB-75
SK-MEL-5 = test system: SK-MEL-5
OVCAR-8 = test system: OVCAR-8
K562 = test system: K562
OVCAR-5 = test system: OVCAR-5
M14 = test system: M14
IGROV-1 = test system: IGROV-1
CAKI-1 = test system: CAKI-1
SF-539 = test system: SF-539
HCT-15 = test system: HCT-15
SK-OV-3 = test system: SK-OV-3
UACC-257 = test system: UACC-257
SR = test system: SR
SNB-78 = test system: SNB-78

Compound | GI50 (A549) | GI50 (HOP-62) | GI50 (HL-60) | GI50 (MDA-MB-435) | GI50 (HT-29) | GI50 (TK-10) | GI50 (SNB-75) | GI50 (SK-MEL-5) | GI50 (OVCAR-8) | GI50 (K562) | GI50 (OVCAR-5) | GI50 (M14) | GI50 (IGROV-1) | GI50 (CAKI-1) | GI50 (SF-539) | GI50 (HCT-15) [µM] | GI50 (SK-OV-3) | GI50 (UACC-257) | GI50 (SR) | GI50 (SNB-78)
CCOC(=O)[C@H]1C[C@]23CN(C(=O)OC(C)(C)C)CC[C@H]2CCC2(SCCCS2)[C@@H]3N1C | 37.8 µM (inactive) | 39.9 µM (inactive) | 20.7 µM (inactive) | 37.7 µM (inactive) | 22.5 µM (inactive) | 36.6 µM (inactive) | 72.9 µM (inactive) | 18.5 µM (inactive) | 37.8 µM (inactive) | 36.6 µM (inactive) | 50.5 µM (inactive) | 30.8 µM (inactive) | 49.9 µM (inactive) | 33.8 µM (inactive) | 29.6 µM (inactive) | 38.1 | > 100 µM (inactive) | 25.6 µM (inactive) | 24 µM (inactive) | –
Cc1cccc(NC(=S)Nc2cccc(Cl)c2)n1 | > 100 µM (inactive) | 39.4 µM (inactive) | > 100 µM (inactive) | > 100 µM (inactive) | > 100 µM (inactive) | > 100 µM (inactive) | > 54 µM (inactive) | > 100 µM (inactive) | > 80.9 µM (inactive) | > 100 µM (inactive) | > 100 µM (inactive) | > 100 µM (inactive) | 44.2 µM (inactive) | > 100 µM (inactive) | 30.1 µM (inactive) | > 100 | 41.9 µM (inactive) | > 100 µM (inactive) | > 100 µM (inactive) | –
COC(=O)Nc1nc2cc(S(=O)(=O)N3CCOCC3)ccc2[nH]1 | > 100 µM (inactive) | 91.8 µM (inactive) | 6.21 µM (inactive) | 26.4 µM (inactive) | > 100 µM (inactive) | 80.2 µM (inactive) | 69.8 µM (inactive) | > 100 µM (inactive) | > 100 µM (inactive) | 44.7 µM (inactive) | > 100 µM (inactive) | > 100 µM (inactive) | > 100 µM (inactive) | > 100 µM (inactive) | 12.4 µM (inactive) | > 100 | > 100 µM (inactive) | > 100 µM (inactive) | 51.1 µM (inactive) | –
COc1cc(-c2cc(O)c(-c3ccc4ccccc4n3)c(O)n2)cc(OC)c1OC | 53.7 µM (inactive) | 53.3 µM (inactive) | 8.55 µM (inactive) | 2.07 µM (inactive) | 18.6 µM (inactive) | 69.7 µM (inactive) | 17.9 µM (inactive) | 15.1 µM (inactive) | > 32.4 µM (inactive) | 3.31 µM (inactive) | > 59.6 µM (inactive) | 25.4 µM (inactive) | 43.5 µM (inactive) | > 44 µM (inactive) | 30.7 µM (inactive) | 29 | 39.6 µM (inactive) | 54.3 µM (inactive) | 1.77 µM (inactive) | –
O=C(c1ccc(NCN2C(=O)CCC2=O)cc1)c1ccc(NCN2C(=O)CCC2=O)cc1 | > 100 µM (inactive) | > 100 µM (inactive) | 18.9 µM (inactive) | – | > 100 µM (inactive) | > 100 µM (inactive) | – | > 100 µM (inactive) | > 100 µM (inactive) | 67.3 µM (inactive) | > 100 µM (inactive) | > 100 µM (inactive) | > 100 µM (inactive) | – | > 100 µM (inactive) | 45.2 | – | 27.7 µM (inactive) | – | > 100 µM (inactive)
NC(=O)CO/N=C1/C(=C2/C(=O)Nc3ccccc32)Nc2ccccc21 | 1.96 µM (inactive) | 22.6 µM (inactive) | 1.96 µM (inactive) | 21.1 µM (inactive) | 2.12 µM (inactive) | 3.85 µM (inactive) | > 100 µM (inactive) | 1.49 µM (inactive) | 62.5 µM (inactive) | 40 µM (inactive) | > 100 µM (inactive) | 10.4 µM (inactive) | 0.395 µM (active) | 0.247 µM (active) | > 100 µM (inactive) | 2 | 0.522 µM (active) | > 100 µM (inactive) | 0.778 µM (active) | –
O=C(c1ccccc1)c1ccc2nc3n(c2c1)C(c1c(Cl)cccc1Cl)SC3 (stereo not drawn) | 4.49 µM (inactive) | 6.37 µM (inactive) | 2.36 µM (inactive) | 1.77 µM (inactive) | 6.31 µM (inactive) | 25.2 µM (inactive) | 2.34 µM (inactive) | 3.24 µM (inactive) | 6.65 µM (inactive) | 3.12 µM (inactive) | 3.95 µM (inactive) | 3.3 µM (inactive) | 4.48 µM (inactive) | 3.44 µM (inactive) | 5.68 µM (inactive) | 3.35 | 4.31 µM (inactive) | 13.6 µM (inactive) | 1.43 µM (inactive) | –
COc1ccc([C@H]2C=C(c3cc(F)c(Cl)cc3Cl)NC(=S)N2)cc1 | 35.3 µM (inactive) | 38.6 µM (inactive) | 11.3 µM (inactive) | 12.8 µM (inactive) | 26.2 µM (inactive) | 32.7 µM (inactive) | 18.2 µM (inactive) | 11.9 µM (inactive) | 40.3 µM (inactive) | 15.2 µM (inactive) | 43.1 µM (inactive) | 32.5 µM (inactive) | 31.4 µM (inactive) | 29.4 µM (inactive) | 42.4 µM (inactive) | 28.7 | 44.1 µM (inactive) | 24.9 µM (inactive) | 5.24 µM (inactive) | –
